The subject of this test is hematopoietic stem cells. Briefly: Bone-marrow transplanted mice, compound c, G-CSF and G-CSF neutralizing antibody (Experimental Example 13). Format: in vivo. As to conditions: for G-CSF concentration in the plasma and bone-marrow fluids: 1 week after transplantation. Here is the method:
Bone-marrow transplanted mice were prepared in the same manner as in Experimental Example 4, and compound c, G-CSF, and G-CSF neutralizing antibody were examined for the effects. Specifically, the bone-marrow transplanted mice were divided into 5 groups as shown below (each group: n=5) and orally administered respective test drugs.
Group 1: vehicle group (physiological saline was administered via gavage) (“v group”)
Group 2: compound c group (compound c [10 mg/kg/day] was administered via gavage) (“TM group”)
Group 3: G-CSF group (G-CSF [150 μg/kg/day] was administered via gavage) (“G group”)
Group 4: vehicle+anti-G-CSF group (physiological saline+G-CSF neutralizing antibody [500 μg/kg/day] was administered via gavage) (“v+Ab group”)
Group 5: compound c+anti-G-CSF group (compound c [500 μg/kg/day]+G-CSF neutralizing antibody [500 μg/kg/day] was administered via gavage) (“TM+Ab group”)
Concurrently with bone-marrow transplantation, administration of physiological saline (vehicle) to the vehicle group via gavage was started, and the administration continued for 5 consecutive days. Concurrently with bone-marrow transplantation, administration of compound c (10 mg/kg/day) to the compound c group via gavage was started, and the administration continued for 5 consecutive days. Concurrently with bone-marrow transplantation, subcutaneous administration of G-CSF (150 μg/kg/day) to the G-CSF group was started, and the administration continued for 5 consecutive days. Concurrently with bone-marrow transplantation, gavage administration of physiological saline and subcutaneous administration of G-CSF neutralizing antibody (R&D) (500 μg/kg/day) to the vehicle+anti-G-CSF group were started, and the administration continued for 5 consecutive days. Concurrently with bone-marrow transplantation, gavage administration of compound c (10 mg/kg/day) and intraperitoneal administration of G-CSF neutralizing antibody (R&D) (500 μg/kg/day) to the compound c+anti-G-CSF group were started, and the administration continued for 5 consecutive days.
1 week after bone-marrow transplantation, plasma and bone-marrow fluids were collected from mice of each group (v group, TM group, G group, v+Ab group, and TM+Ab group), and the G-CSF concentration (pg/ml) was measured by ELISA. The following were determined in accordance with an ordinary procedure: (B) G-CSF concentration (pg/ml) in bone-marrow fluids, (C) total number of mononucleic cells (×10E7 cell) in the bone marrow, (D) proportion (%) of LSK CD34 negative cells in the bone marrow, (E) total number of LSK CD34 negative cells in the bone marrow, (F) proportion (%) of Lin-SLAM cells in the bone marrow, and (G) total number of Lin-SLAM cells in the bone marrow.

[1] abbreviates: compound c + G-CSF neutralizing antibody 500 μg/kg/day.

For `O=C(Nc1ccc(Cl)cc1C(=O)O)c1cccc(-c2ccccc2)c1` [Example 4, 2-[(biphenyl-3-ylcarbonyl)amino]-5-chlorobenzoic acid], the “number of BM MNC” value is, setting by setting: under setting [1], “did not exhibit a decrease”; (single agents: compound c 10 mg/kg/day, G-CSF 150 μg/kg/day, versus vehicle group) “more increased”. In addition, the “proportion and number of LSK-CD34 negative cells” value under setting [1] is “not decreased”. In addition, the “G-CSF concentration in the plasma and bone-marrow fluids” value under setting [1] is given as “an increase in G-CSF in neither plasma nor bone-marrow fluids”; the “G-CSF concentration in the plasma and bone-marrow fluids” value (single agents: compound c 10 mg/kg/day gavage, G-CSF 150 μg/kg/day, G-CSF neutralizing antibody 500 μg/kg/day with vehicle, versus vehicle) is on record as “significant increases”. The “proportion and number of LSK CD34 negative cells” value (single agents: compound c 10 mg/kg/day, G-CSF 150 μg/kg/day, G-CSF neutralizing antibody 500 μg/kg/day with vehicle, versus vehicle group) is “increased”.

For the origin of these results see patent publication US10092537B2, “Use for PAI-1 inhibitor” (RENASCIENCE CO., LTD., priority 2013, dated 2018).
